One assay has as its target T1, EHMT1 (Homo sapiens, UniProt Q9H9B1).
T1 sequence (Q9H9B1 1-1298): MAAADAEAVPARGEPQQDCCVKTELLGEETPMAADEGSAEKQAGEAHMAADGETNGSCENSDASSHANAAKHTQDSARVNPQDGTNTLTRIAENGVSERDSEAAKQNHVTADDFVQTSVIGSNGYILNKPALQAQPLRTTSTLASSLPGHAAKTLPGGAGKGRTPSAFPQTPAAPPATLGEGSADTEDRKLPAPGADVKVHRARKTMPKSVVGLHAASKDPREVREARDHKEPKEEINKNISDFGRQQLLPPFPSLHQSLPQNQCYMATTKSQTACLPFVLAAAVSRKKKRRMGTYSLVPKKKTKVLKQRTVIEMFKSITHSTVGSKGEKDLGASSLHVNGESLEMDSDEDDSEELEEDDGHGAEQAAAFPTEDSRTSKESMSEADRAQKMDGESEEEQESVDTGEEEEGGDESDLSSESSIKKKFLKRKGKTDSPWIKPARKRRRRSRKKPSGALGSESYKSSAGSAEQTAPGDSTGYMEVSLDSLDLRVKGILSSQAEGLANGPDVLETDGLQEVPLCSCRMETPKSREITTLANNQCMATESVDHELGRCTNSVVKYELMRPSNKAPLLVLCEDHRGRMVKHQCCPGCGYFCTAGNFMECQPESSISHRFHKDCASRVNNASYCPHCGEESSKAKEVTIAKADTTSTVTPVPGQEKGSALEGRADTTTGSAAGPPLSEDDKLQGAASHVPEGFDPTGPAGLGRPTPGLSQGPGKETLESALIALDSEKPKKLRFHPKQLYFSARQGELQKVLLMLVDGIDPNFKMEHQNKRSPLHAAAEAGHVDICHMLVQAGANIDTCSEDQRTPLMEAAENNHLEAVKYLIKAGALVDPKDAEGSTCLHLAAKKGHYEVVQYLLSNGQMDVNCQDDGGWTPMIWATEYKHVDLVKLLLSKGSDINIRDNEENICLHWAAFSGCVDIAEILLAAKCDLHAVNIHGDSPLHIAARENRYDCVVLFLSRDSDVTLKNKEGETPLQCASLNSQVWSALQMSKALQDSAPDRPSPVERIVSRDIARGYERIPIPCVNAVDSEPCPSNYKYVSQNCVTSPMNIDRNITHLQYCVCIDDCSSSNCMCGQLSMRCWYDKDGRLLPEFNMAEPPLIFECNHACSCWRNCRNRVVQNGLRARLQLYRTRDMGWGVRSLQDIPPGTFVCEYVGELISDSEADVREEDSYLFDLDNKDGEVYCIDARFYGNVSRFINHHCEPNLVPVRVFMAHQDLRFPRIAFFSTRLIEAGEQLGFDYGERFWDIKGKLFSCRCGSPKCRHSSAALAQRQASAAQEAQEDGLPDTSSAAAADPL
Kind of assay: EHMT1 enzyme assay on peptide substrate (EHMT1 PEP). The assay is classed as biochemical. The following applies: read-out: EHMT1 PEP (IC50 μM).

Another assay deals with T2, human EHMT2 913-1193 (Homo sapiens, UniProt Q96KQ7).
T2 construct: recombinant purified human EHMT2 913-1193, Viva; purchased Viva
T2 sequence (Q96KQ7 913-1193): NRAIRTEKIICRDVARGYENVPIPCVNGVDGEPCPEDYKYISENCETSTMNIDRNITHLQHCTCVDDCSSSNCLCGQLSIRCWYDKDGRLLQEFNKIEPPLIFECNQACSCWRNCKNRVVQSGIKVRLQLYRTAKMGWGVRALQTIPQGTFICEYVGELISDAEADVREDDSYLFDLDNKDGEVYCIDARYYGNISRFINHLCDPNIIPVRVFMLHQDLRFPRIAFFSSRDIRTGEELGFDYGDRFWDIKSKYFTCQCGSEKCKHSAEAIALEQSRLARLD
Description: EHMT2 enzyme assay on histone peptide substrate (EHMT2 PEP). Type of assay: biochemical. The settings on record: read-out: EHMT2 PEP (IC50 μM). Put shortly:
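Radiometric methyltransferase read-out: ^3H-methyl transfer from ^3H-SAM onto biotinylated histone peptide, captured on streptavidin Flashplates after 60 min reaction at room temperature. Enzyme 0.031 nM, preincubated 30 min with inhibitor; buffer 20 mM Bicine pH 7.5 with 1 mM TCEP; top compound concentration 50 μM final, 2% DMSO.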

The structures appear in SMILES notation. Read-outs that look alike come from different tables or passages of the source.

As a reminder, the IC50 is the concentration at which inhibition is half-maximal. For the molecule `CNc1cncc(Nc2ccc(OC)c(OCCCN3CCCC3)c2)n1` [Compound 371], the IC50 at EHMT1 (Table III) and on human EHMT2 913-1193 (Table III) was 1 to 10 µM throughout.
`CNc1cc(C(F)(F)F)nc(Nc2ccc(OC)c(OCCCN3CCCC3)c2)n1` [Compound 362]: the IC50 at EHMT1 (Table III) and at human EHMT2 913-1193 (Table III) was greater than 10 µM each time.
For `CNc1cc(C)nc(Nc2ccc(OC)c(COC3CCN(C)C3)c2)n1` (stereo not shown) [Compound 421, N^2-(4-methoxy-3-(((1-methylpyrrolidin-3-yl)oxy)methyl)phenyl)-N^4,6-dimethylpyrimidine-2,4-diamine], the half-inhibitory concentration (IC50) on EHMT1 (Table III) and at human EHMT2 913-1193 (Table III) was 0.1 to 1 µM each time.
As to `CCNC(=O)c1cccc(Nc2nccc(NC)n2)c1` [Compound 394], the IC50 at EHMT1 (Table III) and at human EHMT2 913-1193 (Table III) was greater than 10 µM throughout.
Turning to `COc1ccc(Nc2nccc(N)n2)cc1OCCCN1CCCC1` [Compound 369], the IC50 on EHMT1 (Table III) and at human EHMT2 913-1193 (Table III) was 0.1 to 1 µM throughout.
With `CNc1cc(C)nc(Nc2ccc(F)c(OCCCN3CCCC3)c2)n1` [Compound 356], the IC50 at EHMT1 (Table III) and on human EHMT2 913-1193 (Table III) was greater than 10 µM throughout.
As for `CNc1ccnc(Nc2ccc(F)c(OCCCN3CCCC3)c2)n1` [Compound 368], the IC50 on EHMT1 (Table III) and on human EHMT2 913-1193 (Table III) was greater than 10 µM in each case.
Take `CNc1ccnc(Nc2ccc(OC)c(OCC3CCN(CC4CC4)C3)c2)n1` (stereo not shown) [Compound 422, N^2-(3-((1-(cyclopropylmethyl)pyrrolidin-3-yl)methoxy)-4-methoxyphenyl)-N^4-methylpyrimidine-2,4-diamine]: the half-maximal inhibitory concentration (IC50) on EHMT1 (Table III) and on human EHMT2 913-1193 (Table III) was 0.1 to 1 µM each time.
On to `COc1ccc(Nc2nccc(NC(C)C3CCOCC3)n2)cc1OCCCN1CCCC1` (stereo not shown) [Compound 378], for which the 50% inhibitory concentration (IC50) at EHMT1 (Table III) and at human EHMT2 913-1193 (Table III) was 0.1 to 1 µM each time.
As to `COc1ccc(Nc2cccc3[nH]ccc23)cc1OCCCN1CCCC1` [Compound 265, N-(4-methoxy-3-(3-(pyrrolidin-1-yl)propoxy)phenyl)-1H-indol-4-amine], the 50% inhibitory concentration (IC50) at EHMT1 (Table III) and at human EHMT2 913-1193 (Table III) was greater than 10 µM each time.
Consider `COc1ccc(Nc2nccc(NC3CCOCC3)n2)cc1OCCCN1CCCC1` [Compound 5, N^2-(4-methoxy-3-(3-(pyrrolidin-1-yl)propoxy)phenyl)-N^4-(tetrahydro-2H-pyran-4-yl)pyrimidine-2,4-diamine], for which the IC50 at EHMT1 (Table II) and at human EHMT2 913-1193 (Table II) was 0.1 to 1 µM in each case.
Regarding `CNc1ccnc(Nc2ccc(OC)c(OCCCN(C)C)c2)n1` [Compound 387], the IC50 on EHMT1 (Table III) is less than 0.1 µM; at human EHMT2 913-1193 (Table III), 0.1 to 1 µM.
For the molecule `COc1ccc(Nc2nccc3[nH]ccc23)cc1OCCCN1CCCC1` [Compound 266, N-(4-methoxy-3-(3-(pyrrolidin-1-yl)propoxy)phenyl)-1H-pyrrolo[3,2-c]pyridin-4-amine], the concentration for half-maximal inhibition (IC50) at EHMT1 (Table III) and at human EHMT2 913-1193 (Table III) was 1 to 10 µM throughout.
Consider `COc1ccc(Nc2nccc(NCC3CCN(C(C)=O)CC3)n2)cc1COCCN1CC(F)C1` [Compound 57], for which the IC50 at EHMT1 (Table II) and on human EHMT2 913-1193 (Table II) was 1 to 10 µM in each case.
Consider `COc1ccc(Nc2nccc(NCC3CCOCC3)n2)cc1OC1CC2(C1)CN(C)C2` [Compound 367], for which the IC50 at EHMT1 (Table III) and at human EHMT2 913-1193 (Table III) was greater than 10 µM throughout.
`CNc1cnnc(Nc2ccc(OC)c(OCCCN3CCCC3)c2)c1` [Compound 370]: the IC50 on EHMT1 (Table III) and at human EHMT2 913-1193 (Table III) was 0.1 to 1 µM each time.
Consider `COc1ccc(Nc2nccc(NCC(F)(F)F)n2)cc1OCCCN1CCCC1` [Compound 392], for which the IC50 at EHMT1 (Table III) and on human EHMT2 913-1193 (Table III) was 0.1 to 1 µM each time.
Turning to `CNc1ccnc(Nc2ccc(OC)c(OCCCN3CCCCC3)c2)n1` [Compound 390], the half-inhibitory concentration (IC50) at EHMT1 (Table III) and on human EHMT2 913-1193 (Table III) was 0.1 to 1 µM in each case.
As to `CNc1ccnc(Nc2ccc3cn(CCN(C)C)nc3c2)n1` [Compound 404, N^2-(2-(2-(dimethylamino)ethyl)-2H-indazol-6-yl)-N^4-methylpyrimidine-2,4-diamine], the IC50 at EHMT1 (Table III) and on human EHMT2 913-1193 (Table III) was greater than 10 µM in each case.
On to `CNc1ccnc(Nc2ccc(OC)c(OCCCN3CCCC3)c2)c1` [Compound 379], for which the IC50 on EHMT1 (Table III) fell in the range of 1 to 10 µM; at human EHMT2 913-1193 (Table III), 0.1 to 1 µM.
For `CNc1ccnc(Nc2ccc(Cl)c(OCCCN3CCCC3)c2)n1` [Compound 398], in that order: 0.1 to 1 µM and 0.1 to 1 µM.
For `COc1ccc(Nc2cnnc(NCC3CCN(C(C)=O)CC3)c2)cc1OCCCN1CCCC1` [Compound 366], in that order: 1 to 10 µM and 1 to 10 µM.
The corresponding values for `CNc1cc(C)nc(Nc2ccc(OC)c(OCC3CCCN(C)C3)c2)n1` (stereo not shown) [Compound 413, N^2-(4-methoxy-3-((1-methylpiperidin-3-yl)methoxy)phenyl)-N^4,6-dimethylpyrimidine-2,4-diamine] are 0.1 to 1 µM and 0.1 to 1 µM.
Consider `CNc1cc(C)nc(Nc2ccc(OC)c(OCC3CCN(C)C3)c2)n1` (single isomer, unassigned) [Compound 417], for which the half-maximal inhibitory concentration (IC50) on EHMT1 (Table III) and on human EHMT2 913-1193 (Table III) was 0.1 to 1 µM in each case.
As to `CNc1ccnc(Nc2ccc3c(c2)N(C(=O)CCN(C)C)CC3)n1` [Compound 363], the concentration for half-maximal inhibition (IC50) at EHMT1 (Table III) and at human EHMT2 913-1193 (Table III) was greater than 10 µM each time.
For the molecule `CNc1nc(Nc2ccc(OC)c(OCCCN3CCCC3)c2)nc(C)c1F` [Compound 360], the half-inhibitory concentration (IC50) on EHMT1 (Table III) and at human EHMT2 913-1193 (Table III) was 0.1 to 1 µM throughout.
`COc1ccc(Nc2nccc(NC3CCN(C(C)=O)CC3)n2)cc1OCCCN1CCCC1` [Compound 54]: the IC50 on EHMT1 (Table II) and at human EHMT2 913-1193 (Table II) was 0.1 to 1 µM throughout.
In the case of `CNc1ccnc(Nc2ccc3cn(CCCN(C)C)nc3c2)n1` [Compound 405], the half-maximal inhibitory concentration (IC50) at EHMT1 (Table III) and at human EHMT2 913-1193 (Table III) was greater than 10 µM each time.
Take `COc1ccc(Nc2nccc(NCC3CCOCC3)n2)cc1OCCCN1CCCC1` [Compound 3, N^2-(4-methoxy-3-(3-(pyrrolidin-1-yl)propoxy)phenyl)-N^4-((tetrahydro-2H-pyran-4-yl)methyl)pyrimidine-2,4-diamine]: the 50% inhibitory concentration (IC50) at EHMT1 (Table II) and at human EHMT2 913-1193 (Table II) was less than 0.1 µM each time.
As for `CCc1cc(NC)nc(Nc2ccc(OC)c(OCCCN3CCCC3)c2)n1` [Compound 364], the concentration for half-maximal inhibition (IC50) on EHMT1 (Table III) and on human EHMT2 913-1193 (Table III) was less than 0.1 µM each time.
Consider `CNc1ccnc(Nc2ccc(OC)c(OCCN3CCOCC3)c2)n1` [Compound 361], for which the IC50 at EHMT1 (Table III) and on human EHMT2 913-1193 (Table III) was 1 to 10 µM throughout.
Take `CNc1cc(Nc2cc(OCCCN3CCCC3)c(OC)cn2)ccn1` [Compound 372]: the half-maximal inhibitory concentration (IC50) on EHMT1 (Table III) and on human EHMT2 913-1193 (Table III) was less than 0.1 µM each time.
In the case of `CNc1ccnc(Nc2cccc(N3CCC(N)C3)c2)n1` (stereo not shown) [Compound 400], the half-inhibitory concentration (IC50) on EHMT1 (Table III) is greater than 10 µM; at human EHMT2 913-1193 (Table III), 1 to 10 µM.
Turning to `COc1ccc(Nc2nccc(N3Cc4cn[nH]c4C3)n2)cc1OCCCN1CCCC1` [Compound 53], the IC50 at EHMT1 (Table II) and on human EHMT2 913-1193 (Table II) was 1 to 10 µM in each case.
With `CNc1cc(C)nc(Nc2cccc(OCCCN3CCCC3)c2)n1` [Compound 391], the IC50 at EHMT1 (Table III) and on human EHMT2 913-1193 (Table III) was 0.1 to 1 µM throughout.
Regarding `CNc1ccnc(Nc2ccc(OC)c(OCC3CCN(C)C3)c2)n1` (single isomer, unassigned) [Compound 416], the 50% inhibitory concentration (IC50) on EHMT1 (Table III) and on human EHMT2 913-1193 (Table III) was less than 0.1 µM throughout.
Turning to `CNc1nc(Nc2ccc(OC)c(OCCCN3CCCC3)c2)ncc1C(F)(F)F` [Compound 358], the IC50 at EHMT1 (Table III) and on human EHMT2 913-1193 (Table III) was greater than 10 µM in each case.
Turning to `COc1ccc(Nc2nccc(NCC(=O)N(C)c3ccccc3)n2)cc1OCCCN1CCCC1` [Compound 52], the IC50 on EHMT1 (Table II) and at human EHMT2 913-1193 (Table II) was 1 to 10 µM each time.

The values are drawn from patent publication US20210198277A1, “AMINE-SUBSTITUTED ARYL OR HETEROARYL COMPOUNDS” (Epizyme, Inc., priority 2016, published 2021).
